Data reported in patent US10195156B2, “Compounds and compositions for intracellular delivery of agents” (ModernaTX, Inc., priority 2015, dated 2019).

Assays:
[1] = Particle size and polydispersity index of nanoparticle compositions (Zetasizer Nano ZS); type: physicochemical; details: for particle size, rank within the named table (in words): comparison amongst compositions
In short: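 Values are size and PDI readings from a Zetasizer Nano ZS. Measurements are taken in 1×PBS; zeta potential, by contrast, uses 15 mM PBS.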

[2] = system: luciferase (Luc) mRNA expression; assay: Expression of Luc induced by sample formulations, whole-body bioluminescence after intravenous administration; type: in vivo; details: mice, i.v., 0.5 mg/kg
In short: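 Read-out is whole-body bioluminescence at 3, 6 and 24 h after a single intravenous dose of 0.5 mg/kg Luc mRNA in nanoparticle formulations. Groups of n=6 mice; PBS and standard MC3 formulation as references.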

[3] = Encapsulation efficiency of RNA (QUANT-IT RIBOGREEN RNA assay); type: physicochemical
In short: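 RiboGreen fluorescence (ex ~480, em ~520 nm) measured after 15 min at 37 °C on samples at ~5 μg/mL in TE, pH 7.5, ± 2% Triton X-100 solution. After blank subtraction, free RNA is given as intact-sample signal divided by disrupted-sample signal.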

IP-10 = assay: Cytokine production induced by sample formulations: IP-10; type: in vivo; details: mice, i.v., 0.5 mpk, 6 hours, in pg/mL (unit assumed)
In short: (§1)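 Cytokine levels were quantified at 6 hours in mice given the nanoparticle compositions i.v. at 0.5 mpk. MC3 standard formulation and PBS served as comparators.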

[4] = pKa of nanoparticle compositions; type: physicochemical
[5] = system: modified luciferase expression; assay: Expression of Luc in different organs (liver, lung, spleen, femur) 6 hours after intravenous administration; type: in vivo; details: i.v., 0.5 mpk
Description: The efficacy of the nanoparticle compositions presented in Tables 1, 1a, 17-1, 19-1, 20-1 and 21-1 was further evaluated by measuring the expression of modified luciferase in the liver, lung, spleen, and femur upon administration of a given composition. Formulations were administered intravenously to mice (n=3) at a dosage of 0.5 mpk and bioluminescence measured after 6 hours. The standard MC3 formulation and a PBS control were also tested.

IL-6 = assay: Cytokine production induced by sample formulations: IL-6; type: in vivo; details: mice, i.v., 0.5 mpk, 6 hours; for IL-6: in pg/mL (unit assumed)
In short: as §1

[6] = Table 20-1, rows without footnote mark
[7] = Table 1, rows without footnote mark
[8] = Table 1, rows without footnote mark (lipid:DOPE:cholesterol:PEG-DMG 40:20:38.5:1.5, Luc mRNA; MC3 standard formulation)

| SMILES | particle size, rank within the named table (in words) [1] | PDI [1, 6] | Size (nm) [1, 6] | EE (%) [3, 6] | IP-10 (IP-10; Table 20-4, formula (20-I)) | pKa [4, 6] | IL-6 (IL-6; Table 20-4, formula (20-I)) | Total Flux 3 hours ([2]; Table 20-2, 3 hours) | Total Flux 6 hours ([2]; Table 20-2) | Total Flux 24 hours ([2]; Table 20-2) | Total Flux Liver ([5]; Table 20-3, mice) | Total Flux Lung ([5]; Table 20-3, mice) | Total Flux Spleen ([5]; Table 20-3, mice) | further results |
| --- | --- | --- | --- | --- | --- | --- | --- | --- | --- | --- | --- | --- | --- | --- |
| CCCCC/C=C\C/C=C\CCCCCCCCN(CCCCCCCC/C=C\C/C=C\CCCCC)CCN1CCNCC1 [Compound 19-3, (9Z,12Z)—N-((9Z,12Z)—Octadeca-9,12-dien-1-yl)-N-(2-(piperazin-1-yl)ethyl)octadeca-9,12-dien-1-amine] | smallest particles | – | – | – | – | – | – | – | – | – | – | – | – | PDI ([1]; Table 19-1): 0.076; Size (nm) ([1]; Table 19-1): 47.9 nm; Total Flux 3 hours ([2]; Table 19-2, 3 hours): 1.69E+06; Total Flux 6 hours ([2]; Table 19-2): 1.21E+06; Total Flux 24 hours ([2]; Table 19-2): 3.39E+05; EE (%) ([3]; Table 19-1): 99.7%; encapsulation efficiency, rank within the named table (in words) ([3]; comparison amongst compositions): highest encapsulation efficiency; IP-10 (IP-10; Table 19-4): 177.5; pKa ([4]; Table 19-1): 7.24; Total Flux Liver ([5]; Table 19-3, mice): 2.65E+05; Total Flux Lung ([5]; Table 19-3, mice): 3.00E+04; Total Flux Spleen ([5]; Table 19-3, mice): 2.55E+05; IL-6 (IL-6; Table 19-4): 5.4; IL-6 induction, rank within the named table (in words) (IL-6): lowest IL-6 expression |
| CCCCC/C=C\CCCCCN(CCCCC/C=C\CCCCC)CCN1CCN(CCN(CCCCCCCCCCCC)CCN(CCCCCCCCCCCC)CCCCCCCCCCCC)CC1 [Compound 25, N^1-(2-(4-(2-(Di((Z)-dodec-6-en-1-yl)amino)ethyl)piperazin-1-yl)ethyl)-N^1,N^2,N^2-tridodecylethane-1,2-diamine] | – | – | – | – | – | – | – | – | – | – | – | – | – | PDI [1, 7]: 0.186; Size (nm) [1, 8]: 90.0 nm; Total Flux 3 hours ([2]; Table 2, 3 hours): 1.06E+10; Total Flux 6 hours ([2]; Table 2): 1.08E+10; Total Flux 24 hours ([2]; Table 2): 2.72E+08; EE (%) [3, 7]: 97.0%; IP-10 (IP-10; Table 4): 1823; pKa [4, 7]: 6.20; Total Flux Liver ([5]; Table 3, mice): 2.68E+09; Total Flux Lung ([5]; Table 3, mice): 5.88E+06; Total Flux Spleen ([5]; Table 3, mice): 6.00E+06; IL-6 (IL-6; Table 4): 131 |
| CCCCCCCCCCCCN(CCCO)CCCCCCCCCCCC [Compound 17-12, 3-(Didodecylamino)propan-1-ol] | smallest particles | – | – | – | – | – | – | – | – | – | – | – | – | PDI ([1]; Table 17-1): 0.148; Size (nm) ([1]; Table 17-1): 76.1 nm; Total Flux 3 hours ([2]; Table 17-2, 3 hours): 2.94E+06; Total Flux 6 hours ([2]; Table 17-2): 2.54E+06; Total Flux 24 hours ([2]; Table 17-2): 4.66E+05; EE (%) ([3]; Table 17-1): 95.04%; IP-10 (IP-10; Table 17-4): 148; pKa ([4]; Table 17-1): 6.83; Total Flux Liver ([5]; Table 17-3, mice): 4.94E+05; Total Flux Lung ([5]; Table 17-3, mice): 4.89E+04; Total Flux Spleen ([5]; Table 17-3, mice): 7.81E+04; IL-6 (IL-6; Table 17-4): 83.1 |
| CCCCCCCCCCCCCCN(CCCCCCCCCCCCCC)CCN(CCCCCCCCCCCCCC)CCN1CCN(CCN(CCCCCCCCC)CCCCCCCCC)CC1 [Compound 30, N^1-(2-(4-(2-(Dinonylamino)ethyl)piperazin-1-yl)ethyl)-N^1,N^2,N^2-tritetradecylethane-1,2-diamine] | – | – | – | – | – | – | – | – | – | – | – | – | – | PDI [1, 7]: 0.110; Size (nm) [1, 8]: 95.0 nm; Total Flux 3 hours ([2]; Table 2, 3 hours): 2.87E+10; Total Flux 6 hours ([2]; Table 2): 1.59E+10; Total Flux 24 hours ([2]; Table 2): 1.95E+09; total flux after 3 hours, rank within the named table (in words) ([2]; 3 hours): highest flux after 3 hours; EE (%) [3, 7]: 74.3%; IP-10 (IP-10; Table 4): 4235; pKa [4, 7]: 6.09; Total Flux Femur ([5]; Table 3, mice): 2.22E+06; Total Flux Liver ([5]; Table 3, mice): 2.42E+09; Total Flux Lung ([5]; Table 3, mice): 1.61E+07; Total Flux Spleen ([5]; Table 3, mice): 7.18E+06; IL-6 (IL-6; Table 4): 300 |
| CCCCC/C=C\C/C=C\CCCCCCCCN(CCCCCCCCCCCC)CCN1CCN(CCN(CCCCCCCCCCCC)CCN(CCCCCCCCCCCC)CCCCCCCCCCCC)CC1 [Compound 27, N^1,N^1,N^2-Tridodecyl-N^2-(2-(4-(2-(dodecyl((9Z,12Z)-octadeca-9,12-dien-1-yl)amino)ethyl)piperazin-1-yl)ethyl)ethane-1,2-diamine] | – | – | – | – | – | – | – | – | – | – | – | – | – | PDI [1, 7]: 0.211; Size (nm) [1, 8]: 86.4 nm; Total Flux 3 hours ([2]; Table 2, 3 hours): 4.56E+09; Total Flux 6 hours ([2]; Table 2): 4.70E+09; Total Flux 24 hours ([2]; Table 2): 1.36E+08; EE (%) [3, 7]: 97.9%; IP-10 (IP-10; Table 4): 2564; pKa [4, 7]: 6.14; Total Flux Liver ([5]; Table 3, mice): 7.84E+08; Total Flux Lung ([5]; Table 3, mice): 3.56E+06; Total Flux Spleen ([5]; Table 3, mice): 3.34E+06; IL-6 (IL-6; Table 4): 42 |

Second part, led by results:

| particle size, rank within the named table (in words) [1] | PDI [1, 6] | Size (nm) [1, 6] | EE (%) [3, 6] | IP-10 (IP-10; Table 20-4, formula (20-I)) | pKa [4, 6] | IL-6 (IL-6; Table 20-4, formula (20-I)) | SMILES | Total Flux 3 hours ([2]; Table 20-2, 3 hours) | Total Flux 6 hours ([2]; Table 20-2) | Total Flux 24 hours ([2]; Table 20-2) | Total Flux Liver ([5]; Table 20-3, mice) | Total Flux Lung ([5]; Table 20-3, mice) | Total Flux Spleen ([5]; Table 20-3, mice) | further results |
| --- | --- | --- | --- | --- | --- | --- | --- | --- | --- | --- | --- | --- | --- | --- |
| – | 0.110 | 76.4 nm | 95.8% | 671.5 | 6.82 | 105.8 | CCCCCCCCCCCCN(CCCCCCCCCCCC)CCN(CCO)CCCCCC(=O)OCCCCC [Compound 20-3, Pentyl 6-((2-(didodecylamino)ethyl)(2-hydroxyethyl)amino)hexanoate] | 5.35E+09 | 3.00E+09 | 6.49E+07 | 4.33E+08 | 6.08E+05 | 6.35E+06 | Total Flux Femur ([5]; Table 20-3, mice): 1.73E+06 |
| smallest particles | 0.118 | 67.4 nm | 97.4% | 136.3 | 6.48 | 49.4 | CCCCCCCCCCCCN(CCCCCCCCCCCC)CCN(CCO)CCCCCC [Compound 20-15, 2-((2-(Didodecylamino)ethyl)(hexyl)amino)ethan-1-ol] | 3.36E+08 | 2.25E+08 | 2.08E+07 | 6.74E+07 | 5.56E+05 | 1.86E+06 | – |
| smallest particles | 0.141 | 67.9 nm | 96.6% | 134.0 | 6.43 | 18.4 | CCCCCCCCCCCCN(CCCCCCCCCCCC)CCN(CCO)CCCCCCCC(=O)OCCCCCCCCC [Compound 20-8, Nonyl 8-((2-(didodecylamino)ethyl)(2-hydroxyethyl)amino)octanoate] | 2.76E+09 | 4.37E+09 | 1.30E+08 | 8.09E+08 | 3.45E+06 | 2.70E+07 | Total Flux Femur ([5]; Table 20-3, mice): 1.62E+06 |
| – | 0.092 | 71.2 nm | 98.2% | 1207.0 | 6.25 | 6.3 | CCCCCCCCCCCCN(CCCCCCCCCCCC)CCN(CCO)CCCCCCCCC [Compound 20-17, 2-((2-(didodecylamino)ethyl)(nonyl)amino)ethan-1-ol] | 1.97E+07 | 1.44E+07 | 1.54E+06 | 2.99E+06 | 2.79E+04 | 9.56E+04 | – |
| – | 0.038 | 90.6 nm | 96.9% | 1678.6 | 6.06 | 67.1 | CCCCCCCCCCCCCCN(CCO)CCN(CCCCCCCCCCCC)CCCCCCCCCCCC [Compound 20-24, 2-((2-(Didodecylamino)ethyl)(tetradecyl)amino)ethan-1-ol] | 7.47E+08 | 1.64E+08 | 9.72E+06 | 4.05E+07 | 1.08E+05 | 1.11E+06 | – |
| – | 0.118 | 96.1 nm | 97.5% | 1700.5 | 5.38 | 46.9 | CCCCCCCCCCCCCCN(CCCCCCCCCCCCCC)CCN(CCCO)CCCCCCCCCCCC [Compound 20-11, 3-((2-(Ditetradecylamino)ethyl)(dodecyl)amino)propan-1-ol] | 1.44E+09 | 8.83E+08 | 2.40E+07 | 3.60E+08 | 5.86E+05 | 9.24E+06 | – |
